Experimental data from patent US9850225B2, “Compounds useful as immunomodulators” (BRISTOL-MYERS SQUIBB COMPANY, priority 2014, dated 2017).

target: PD-1/PD-L1 interaction (PD-1-Ig / PD-L1-His) (Homo sapiens (Human), UniProt Q9NZQ7); assay: PD-1/PD-L1 Homogenous Time-Resolved Fluorescence (HTRF) binding assay; settings: PD-1/PD-L1 HTRF binding assay; numeric value; read-out: Range or IC50
In short: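 HTRF detection used 1 nM europium-cryptate anti-Ig and 20 nM APC anti-His. Compounds first saw 10 nM PD-L1-His for 15 min, and 20 nM PD-1-Ig was then added for another 15 min. Buffer was dPBS plus 0.1% BSA and 0.05% Tween-20. All concentrations are final.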

Chain of PD-1/PD-L1 interaction (PD-1-Ig / PD-L1-His) (Q9NZQ7 other isoform, or with tags, fused parts or gaps): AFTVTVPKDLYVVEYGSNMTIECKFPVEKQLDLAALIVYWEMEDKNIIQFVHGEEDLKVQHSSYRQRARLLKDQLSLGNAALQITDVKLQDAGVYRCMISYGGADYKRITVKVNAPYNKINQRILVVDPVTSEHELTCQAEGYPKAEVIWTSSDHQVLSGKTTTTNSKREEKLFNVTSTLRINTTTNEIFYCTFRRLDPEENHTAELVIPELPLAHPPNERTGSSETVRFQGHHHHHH

Row | IC50 | SMILES
1 | 1.19 nM | Cc1c(COc2cc(OCc3cncc(C#N)c3)c(CNC[C@@H](O)CC(=O)O)cc2Cl)cccc1-c1ccc2c(c1)OCCO2 [Example 1250, (S)-4-((5-chloro-2-((5-cyanopyridin-3-yl)methoxy)-4-((3-(2,3-dihydrobenzo[b][1,4]dioxin-6-yl)-2-methylbenzyl)oxy)benzyl)amino)-3-hydroxybutanoic acid]
2 | 6.07 nM | Cc1c(COc2cc(OCc3cccc(C#N)c3)c(CNC3(C(=O)O)CCN(C)CC3)cc2Cl)cccc1-c1ccc2c(c1)OCCO2 [Example 1220, 4-((5-chloro-2-((3-cyanobenzyl)oxy)-4-((3-(2,3-dihydrobenzo[b][1,4]dioxin-6-yl)-2-methylbenzyl)oxy)benzyl)amino)-1-methylpiperidine-4-carboxylic acid]

same assay, conditions: PD-1/PD-L1 HTRF binding assay; value given as range class; read-out: Range or IC50

Row | IC50 | SMILES
3 | 10 to 100 nM | Cc1c(COc2ccc(CN[C@H](C(=O)O)[C@H](C)O)c(OCc3cccc(C#N)c3)c2)cccc1-c1ccccc1 [Example 1012, (2S,3S)-2-((2-((3-cyanobenzyl)oxy)-4-((2-methyl-[1,1′-biphenyl]-3-yl)methoxy)benzyl)amino)-3-hydroxybutanoic acid]
4 | 0.6 to 10 nM | Cc1c(COc2cc(OCc3cncc(C#N)c3)c(CN[C@@H](CO)C(=O)O)cc2Br)cccc1-c1ccc2c(c1)OCCO2 [Example 1318, (S)-2-(5-bromo-2-((5-cyanopyridin-3-yl)methoxy)-4-(3-(2,3-dihydrobenzo[b][1,4]dioxin-6-yl)-2-methylbenzyloxy)benzylamino)-3-hydroxypropanoic acid]
5 | 10 to 100 nM | Cc1c(COc2cc(OCc3cccc(C#N)c3)c(CNC(Cc3cccc(O)c3)C(=O)O)cc2Cl)cccc1-c1ccc2c(c1)OCCO2 (centres unmarked) [Example 1159, 2-((5-chloro-2-((3-cyanobenzyl)oxy)-4-((3-(2,3-dihydrobenzo[b][1,4]dioxin-6-yl)-2-methylbenzyl)oxy)benzyl)amino)-3-(3-hydroxyphenyl)propanoic acid]
6 | 10 to 100 nM | CC(=O)NCCNCc1ccc(OCc2cccc(-c3ccc4c(c3)OCCO4)c2Cl)cc1OCc1cccc(C#N)c1 [Example 1150, N-(2-(4-(2-chloro-3-(2,3-dihydrobenzo[b][1,4]dioxin-6-yl)benzyloxy)-2-(3-cyanobenzyloxy)benzylamino)ethyl)acetamide]
7 | 0.6 to 10 nM | Cc1c(COc2ccc(CN[C@@](C)(CO)C(=O)O)c(OCc3cccc(C#N)c3)c2)cccc1-c1ccccc1 [Example 1019, (S)-2-((2-((3-cyanobenzyl)oxy)-4-((2-methyl-[1,1′-biphenyl]-3-yl)methoxy)benzyl)amino)-3-hydroxy-2-methylpropanoic acid]
8 | 100 to 20000 nM | CC(=O)NCCNCc1ccc(OCc2cccc(-c3ccccc3)c2C)cc1OCc1ccccc1OC(F)F [Example 1085, N-(2-((2-((2-(difluoromethoxy)benzyl)oxy)-4-((2-methyl-[1,1′-biphenyl]-3-yl)methoxy)benzyl)amino)ethyl)acetamide]
9 | 100 to 20000 nM | CC(=O)NCCNCc1ccc(OCc2cccc(-c3ccccc3)c2C)cc1OCc1cc(F)cc(Cl)c1 [Example 1091, N-(2-((2-((3-chloro-5-fluorobenzyl)oxy)-4-((2-methyl-[1,1′-biphenyl]-3-yl)methoxy)benzyl)amino)ethyl)acetamide]
10 | 100 to 20000 nM | COc1ccc(C(=O)O)cc1COc1cc(OCc2cccc(-c3ccc4c(c3)OCCO4)c2C)c(Cl)cc1CN1CCCC[C@H]1C(=O)O [Example 3027, (S)-1-(2-((5-carboxy-2-methoxybenzyl)oxy)-5-chloro-4-((3-(2,3-dihydrobenzo[b][1,4]dioxin-6-yl)-2-methylbenzyl)oxy)benzyl)piperidine-2-carboxylic acid]
11 | 0.6 to 10 nM | Cc1cc(CN[C@@](C)(CO)C(=O)O)c(OCc2cncc(C#N)c2)cc1OCc1cccc(-c2ccc3c(c2)OCCO3)c1Cl [Example 1154, (S)-2-(4-(2-chloro-3-(2,3-dihydrobenzo[b][1,4]dioxin-6-yl)benzyloxy)-2-((5-cyanopyridin-3-yl)methoxy)-5-methylbenzylamino)-3-hydroxy-2-methylpropanoic acid]
12 | 0.6 to 10 nM | Cc1c(COc2cc(OCc3cncc(C#N)c3)c(CN3C[C@@H](O)CC[C@H]3C(=O)O)cc2Cl)cccc1-c1ccc2c(c1)OCCO2 [Example 2007, (2S,5S)-1-(5-chloro-2-((5-cyanopyridin-3-yl)methoxy)-4-((3-(2,3-dihydrobenzo[b][1,4]dioxin-6-yl)-2-methylbenzyl)oxy)benzyl)-5-hydroxypiperidine-2-carboxylic acid]
13 | 0.6 to 10 nM | Cc1c(COc2cc(OCc3cncc(C#N)c3)c(CN[C@@H](CCCN)C(=O)O)cc2Cl)cccc1-c1ccc2c(c1)OCCO2 [Example 2003, (S)-5-amino-2-((5-chloro-2-((5-cyanopyridin-3-yl)methoxy)-4-((3-(2,3-dihydrobenzo[b][1,4]dioxin-6-yl)-2-methylbenzyl)oxy)benzyl)amino)pentanoic acid]
14 | 0.6 to 10 nM | Cc1cc(OCc2cccc(-c3ccc4c(c3)OCCO4)c2C)cc(OCc2cccc(C#N)c2)c1CNC[C@@H](O)CC(=O)O [Example 1003, (S)-4-(2-(3-cyanobenzyloxy)-4-(3-(2,3-dihydrobenzo[b][1,4]dioxin-6-yl)-2-methylbenzyloxy)-6-methylbenzylamino)-3-hydroxybutanoic acid]
15 | 10 to 100 nM | CC(=O)NCCNCc1ccc(OCc2cccc(-c3ccccc3)c2C)cc1OCc1ccc(F)c(C#N)c1 [Example 1114, N-(2-((2-((3-cyano-4-fluorobenzyl)oxy)-4-((2-methyl-[1,1′-biphenyl]-3-yl)methoxy)benzyl)amino)ethyl)acetamide]
16 | 0.6 to 10 nM | Cc1cc(CNC[C@@H](O)CC(=O)O)c(OCc2ccc(F)c(C#N)c2)cc1OCc1cccc(-c2ccc3c(c2)OCCO3)c1C [Example 1270, (S)-4-((2-((3-cyano-4-fluorobenzyl)oxy)-4-((3-(2,3-dihydrobenzo[b][1,4]dioxin-6-yl)-2-methylbenzyl)oxy)-5-methylbenzyl)amino)-3-hydroxybutanoic acid]
17 | 0.6 to 10 nM | Cc1cc(CN[C@](C)(CO)C(=O)O)c(OCc2cncc(C#N)c2)cc1OCc1cccc(-c2ccc3c(c2)OCCO3)c1Cl [Example 1156, (R)-2-(4-(2-chloro-3-(2,3-dihydrobenzo[b][1,4]dioxin-6-yl)benzyloxy)-2-((5-cyanopyridin-3-yl)methoxy)-5-methylbenzylamino)-3-hydroxy-2-methylpropanoic acid]
18 | 0.6 to 10 nM | Cc1c(COc2cc(OCc3cccc(C#N)c3)c(CNC(Cc3c[nH]cn3)C(=O)O)cc2Cl)cccc1-c1ccc2c(c1)OCCO2 (centres unmarked) [Example 1164, 2-((5-chloro-2-((3-cyanobenzyl)oxy)-4-((3-(2,3-dihydrobenzo[b][1,4]dioxin-6-yl)-2-methylbenzyl)oxy)benzyl)amino)-3-(1H-imidazol-4-yl)propanoic acid]
19 | 100 to 20000 nM | COc1ccc(F)c(COc2cc(OCc3cccc(-c4ccccc4)c3C)ccc2CNCCNC(C)=O)c1F [Example 1092, N-(2-((2-((2,6-difluoro-3-methoxybenzyl)oxy)-4-((2-methyl-[1,1′-biphenyl]-3-yl)methoxy)benzyl)amino)ethyl)acetamide]
20 | 0.6 to 10 nM | Cc1c(COc2cc(OCc3cccc(C#N)c3)c(CN[C@H](Cc3cscn3)C(=O)O)cc2Cl)cccc1-c1ccc2c(c1)OCCO2 [Example 1206, (R)-2-((5-chloro-2-((3-cyanobenzyl)oxy)-4-((3-(2,3-dihydrobenzo[b][1,4]dioxin-6-yl)-2-methylbenzyl)oxy)benzyl)amino)-3-(thiazol-4-yl)propanoic acid]
